Assay results as given in patent US20140378502A1, “Par1 Inhibitors for Use in the Treatment or Prevention of Paramyxoviridae Infections” (Université Laval, priority 2011, published 2014).
Where no end group is shown, it is not given here.

How the values were obtained:
[1] = system: hMPV strain C-85473; assay: hMPV-infected BALB/c mice, three-day prophylactic treatment regimen (experiment 1); format: in vivo; settings: 3-day treatment; for pulmonary viral titers: day 5 post hMPV infection, vs diluted DMSO or H2O treated mice; for pulmonary viral titers / cytokine expression in the lungs: 50 or 500 μM; for cytokine expression in the lungs: day 5 post infection, Luminex; for weight loss: hMPV-infected mice, 50 or 500 μM intranasal, vs infected untreated mice (H2O or DMSO), followed 14 days; for mice that reached the humane endpoint: none in the untreated group
Method: (§1) hMPV viral titers were determined by 10-fold serial dilutions of virus in 24-well plates containing LLC-MK2 cells. Before infection, cells were washed twice with phosphate-buffered saline (PBS) to remove residual serum proteins that could inhibit trypsin activity. Infected plates were incubated at 37° C. with 5% CO2 and replenished with 1 μl of fresh trypsin (0.0002%) every other day. hRSV viral titers were determined by 10-fold serial dilutions of virus in 24-well plates containing Hep2 cells. Before infection, cells were washed twice with phosphate-buffered saline (PBS). Infected plates were incubated at 37° C. with 5% CO2. On day 4 post infection, plates were fixed with 80% acetone at −20° C. for 30 min, washed with PBS and air dried. The presence of hRSV was detected by an immuno-staining assay using a monoclonal goat Anti-Respiratory Syncytial Virus primary antibody and a donkey anti-Goat IgG Secondary Antibody, HRP conjugate (both from Cederlane). Virus titers were reported as 50% tissue culture infectious doses (TCID50) per ml, per mouse or per gram of lung. The lower limit of detection of the assay is 10^2 TCID50 per gram. TCID50 were calculated by the Reed and Muench method.
In the first protocol, groups of 12 4-6-week-old female BALB/c mice (Charles River Laboratories) were infected intranasally with 4-7×10^5 TCID50 hMPV strain C-85473 in 25 μl of OptiMEM™ supplemented with the PAR-1 or PAR-1 antagonist at a final concentration of 50 μM or 500 μM. As infected controls, groups of 12 4-6-week-old BALB/c mice (Charles River Laboratories) were infected intranasally with 4-7×10^5 TCID50 hMPV strain C-85473 in 25 μl of OptiMEM™ supplemented with H2O or DMSO. As an uninfected control, 12 mice were sham infected with the concentrated supernatant of non-infected LLC-MK2 cells supplemented with DMSO. On day 1 and 2 post infection, animals were treated with the PAR-1 agonist or PAR-1 antagonist at a final concentration of 50 μM or 500 μM, or H2O or DMSO for control groups, resulting in a 3-day treatment in total. All animals were housed in groups of four in micro-isolator cages. The animals were evaluated on a daily basis for mortality, weight loss, and the presence of symptoms. On day 5 post-infection, lungs were removed from six mice per group for the evaluation of viral titres by cell culture and cytokine expression by Luminex™.
(§2) On day 5 post infection, six animals per group were sacrificed, the lungs were removed and snap frozen in liquid nitrogen. Lungs were weighed, homogenized in 1 ml of PBS, centrifuged (2000 rpm, 10 min) and the supernatant was used to infect LLC-MK2 monolayers (in case of hMPV-infected mice) or Hep2 monolayer (in case of hRSV-infected mice) for virus titration as reported in the section “Viral titers”.
(§3) 250 μL of lung homogenates (see section “Pulmonary viral titers”) were added to 250 μl 50 mM KPO4, pH 6.0 buffer containing 0.2% CHAPS {3-[(3-cholamidopropyl)-dimethylammonio]1-1-propanesulfonate} (Sigma) and 0.2% of a protease inhibitor cocktail (Sigma) and stored at −20° C. until the day of analysis. Samples were centrifuged at 13,800×g for 10 min at 4° C., and 50 μl of the supernatant was used for cytokine quantification. Levels of interleukin-4, IL-6, IL-12(p40), IL-12(p70), IFN-γ, KC, MCP-1, MIP-1α, RANTES were determined by the use of a 9-plex mouse bead kits (BioRad™/Millipore™) according to the manufacturer's instructions. Experiments were performed in a 96-well filter plate and results were analysed with the Luminex™ system (Qiagen™).
(§4) Differences in weight loss between groups was analysed by repeated measures two-way ANOVA. Viral titers, cytokine levels and mean histopathology scores were analysed using student t-test.

[2] = system: hMPV strain C-85473; assay: hMPV-infected BALB/c mice, five-day treatment started simultaneously or 24 h post infection (experiment 3); format: in vivo; settings: 500 μM
Method: as §1
In a third protocol, Two groups of 12 4-6-week-old BALB/c mice (Charles River Laboratories) were infected intranasally with 6×105 TCID50 hMPV strain C-85473 in 25 μl of OptiMEM™, supplemented with the PAR-1 agonist or PAR-1 antagonist at a final concentration of 500 μM and treated on days 1 through 4 post infection with the PAR-1 agonist or PAR-1 antagonist (500 μM). Two more groups of 4-6-week-old BALB/c mice (Charles River Laboratories) were infected intranasally with 6×105 TCID50 hMPV strain C-85473 in 25 μl of OptiMEM™. These groups were treated from day 1 though 5 post infection (treatment delayed 24 h post-infection) with the PAR-1 agonist or PAR-1 antagonist (500 μM). As infected controls, groups of 12 4-6-week-old BALB/c mice (Charles River Laboratories) were infected intranasally with 4×105 TCID50 hMPV strain C-85473 in 25 μl of OptiMEM supplemented with DMSO. All animals were housed in groups of four in micro-isolator cages. The animals were evaluated on a daily basis for mortality, weight loss, and the presence of symptoms. On day 5 post-infection, lungs were removed from six mice per group for the evaluation of viral titres by cell culture
as §2, §4

[3] = system: hRSV strain 15 595; assay: hRSV Balb/C mouse model, five-day treatment (experiment 4); format: in vivo; settings: day 5 post hRSV infection, 500 μM, 5-day treatment, vs untreated and PAR-1 agonist treated mice
Method: The clinical hRSV A strain 15 959 that was passed nine times on Hep2 cells, was grown on Hep2 cells in MEM™ (Life Technologies) supplemented with 2% FBS (Wisent). Hep2 cells were infected with 10 TCID50/Hep2 cell of hRSV 15 959 and plated out into one flask (150 cm^2) until 60% cytopathic effects were observed. Infected monolayers and supernatants were recovered with a cell scraper and sonicated. The pooled preparation was centrifuged (1200 r.p.m., 10 min) to remove cellular debris. Supernatant was aliquoted and stored at −80° C. The same protocol was followed for a flask of uninfected cells for control mice.
hMPV viral titers were determined by 10-fold serial dilutions of virus in 24-well plates containing LLC-MK2 cells. […] Infected plates were incubated at 37° C. with 5% CO2 and replenished with 1 μl of fresh trypsin (0.0002%) every other day. hRSV viral titers were determined by 10-fold serial dilutions of virus in 24-well plates containing Hep2 cells. […] The presence of hRSV was detected by an immuno-staining assay using a monoclonal goat Anti-Respiratory Syncytial Virus primary antibody and a donkey anti-Goat IgG Secondary Antibody, HRP conjugate (both from Cederlane). […] TCID50 were calculated by the Reed and Muench method. […]
Differences in weight loss between groups was analysed by repeated measures two-way ANOVA. […]

[4] = system: hMPV strain C-85473; assay: hMPV-infected BALB/c mice, five-day pre-exposure prophylactic treatment regimen (experiment 2); format: in vivo; settings: 500 μM, 5-day treatment; for pulmonary inflammation (histopathology): infected treated vs infected untreated mice; for pulmonary viral titers: vs other infected groups; for weight loss (and symptoms): hMPV-infected mice, vs infected untreated mice
Method: as §1
(§5) In the second protocol, groups of 18 4-6-week-old BALB/c mice (Charles River Laboratories) were infected intranasally with 6-8×10^5 TCID50 hMPV strain C-85473 in 25 μl of OptiMEM™ supplemented with the PAR-1 agonist, PAR-1 antagonist or control peptide at a final concentration of 500 μM. As infected controls, groups of 18 4-6-week-old BALB/c mice (Charles River Laboratories) were infected intranasally with 6-8×10^5 TCID50 hMPV strain C-85473 in 25 μl of OptiMEM™ supplemented with H2O or DMSO. As uninfected control, groups 18 mice were sham infected with the concentrated supernatant of non-infected LLC-MK2 cells supplemented with the PAR-1 agonist, PAR-1 antagonist or control peptide at a final concentration of 500 μM or DMSO. On day 1 through 4 post infection, animals were treated with the PAR-1 agonist, PAR-1 antagonist or control peptide at a final concentration of 50 μM or 500 μM, or H2O or DMSO for control groups, resulting in a 5-day treatment in total. Animals were housed in groups of five and three in micro-isolator cages. The animals were evaluated on a daily basis for mortality, weight loss, and the presence of symptoms. On day 5 post-infection, lungs were removed from six mice per group for the evaluation of viral titres by cell culture and cytokine expression by Iuminex™. Lungs of another six mice per group were removed for histopathological analysis.
as §2, §3
On day 5 post infection, 6 animals per group were sacrificed, and the lungs were collected at specified time points and fixed with 4% buffered formalin. […]

[5] = Uninfected (sham infected) mice treated for 5 days, check for toxic and non specific effects; format: in vivo, BALB/c mice; settings: 500 μM
Method: as §5, with “Lungs of another six mice per group were removed for histopathological analysis.” left out
as §3

[6] = system: hMPV; settings: background statement; cited from earlier work
[7] = system: hMPV; settings: background statement; cited from earlier work; remark: listed apart in the source
[8] = system: hMPV; settings: background statement; cited from earlier work; remark: listed apart in the source
[9] = 5-day prophylactic treatment started simultaneously with infection, vs infected/untreated group (FIG. 12)
[10] = 5-day treatment started 24 h post infection, vs infected/untreated mice (FIG. 13)

## CC(C)c1ccc(Cn2ccc3c4c(N)nc(NC5CC5)nc4ccc32)cc1 [PAR-1 antagonist, N3-cyclopropyl-7-{[4(I-methylethyl)phenyl]methyl)-7H-pyrrolo[3,2-f]quinazoline-I,3-diamine]
[1]
  pulmonary viral titers: significant (though not dose-dependent) reduction
  cytokine expression in the lungs: no significant difference in cytokine expression
  weight loss: dose dependent reduction in weight loss
[2]; [9]
  weight loss: significant reduced weight loss
[2]; [10]
  weight loss: lost less weight than infected/untreated mice and weight loss started at a later time point
[2]; 5-day treatment started 24 h post infection, vs infected/untreated mice (FIG. 13), listed as PAR1 antagonists
  weight loss: started losing weight later and lost less weight than untreated infected mice, although the difference was not found to be statistically significant
[2]; day 5 post infection, treatment simultaneous or started 24 h post infection, vs infected/untreated
  pulmonary viral titers: reduction in pulmonary viral titers
[3]
  lung viral titers: significantly reduced viral titers
[4]; day 5 post hMPV infection
  pulmonary inflammation (histopathology): no pulmonary inflammation was observed
[4]; day 5 post infection, Luminex
  pulmonary inflammatory cytokine/chemokine levels compared to all other groups of infected mice: significant reduction in all of the evaluated inflammatory cytokine/chemokine levels
[4]; day 5 post infection
  pulmonary viral titers: reduced pulmonary viral titers
[4]
  weight loss (and symptoms): abolished all weight loss and symptoms
[5]
  weight loss or symptoms in uninfected mice: In none of the uninfected groups significant weight loss or symptoms were observed

## NC(=O)c1ncn([C@@H]2O[C@H](CO)[C@@H](O)[C@H]2O)n1 [Ribavirin]
[6]
  effect in a lung transplant recipient with hMPV pneumonia: effective
[7]
  in vitro activity against hMPV: good in vitro activity
[8]
  effect in hMPV-infected mice: effective

## C[C@]12C[C@H](O)[C@H]3[C@@H](CCC4=CC(=O)CC[C@@]43C)[C@@H]1CC[C@@H]2C(=O)CO [corticosterone]
[8]
  effect in hMPV-infected mice: minimal benefit

## FTLLR-NH2 [control peptide, FTLLR-NH2]
[5]
  weight loss or symptoms in uninfected mice: In none of the uninfected groups significant weight loss or symptoms were observed

## TFLLR-NH2 [PAR-1 agonist]
[1]; 50 μM
  mice that reached the humane endpoint: One out of 6
[1]; 500 μM
  difference in weight loss vs infected untreated mice: significant on days 5 through 7
  mice that reached the humane endpoint: 3 out of 6
[1]
  pulmonary viral titers: No significant difference
  cytokine expression in the lungs: dose-dependent increases in IL-6, IL-12(p40) and MCP-1
  weight loss: dose-dependent increase in weight loss
[2]; [9]
  weight loss: regained weight less rapidly than the control
[2]; [10]
  weight loss: regained their weight more slowly than infected/untreated mice
[2]; 5-day treatment started 24 h post infection, vs infected/untreated mice (FIG. 13), listed as PAR1 agonist
  weight loss: more weight loss than infected/untreated mice
[2]; day 5 post infection
  pulmonary viral titers, treatment started simultaneously vs 24 h post infection: No significant difference
[4]; day 5 post hMPV infection
  lung histopathological inflammation criteria compared to uninfected, untreated mice: increases in all but one (peribronchial) inflammation criteria
  pulmonary inflammation (histopathology): No significant difference
[4]; day 5 post infection, Luminex
  pulmonary cytokine/chemokine levels compared to infected mice treated with H2O: increased levels of IL-4, IL-12(p40) and MCP-1
  pulmonary cytokine/chemokine levels compared to mice treated with the control peptide: increased levels of IL-4, KC, MCP-1 and MIP-1α
[4]; day 5 post infection
  pulmonary viral titers: No significant difference
[4]
  weight loss (and symptoms): no significant difference in weight loss
[5]
  weight loss or symptoms in uninfected mice: In none of the uninfected groups significant weight loss or symptoms were observed
